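Exposure lasted 48 hours, with cells grown in 96-well plates and compounds tested at five concentrations. The concentration for 50% growth inhibition is given as GI50.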 Active and inactive are the calls of the source. Cut-off read from the data, not from the text of the source: active = GI50 up to about 1.1 µM and inactive = higher.
Columns and labels:
Assay in all cases: inhibition of tumour cell growth, NCI panel, 48 h
U-251 = system: U-251
HOP-92 = system: HOP-92
NCI-H460 = system: NCI-H460
K562 = system: K562
HCT-116 = system: HCT-116
SN12C = system: SN12C
HL-60 = system: HL-60
RPMI-8226 = system: RPMI-8226
SK-MEL-5 = system: SK-MEL-5
OVCAR-5 = system: OVCAR-5
HCT-15 = system: HCT-15
NCI-H522 = system: NCI-H522
HT-29 = system: HT-29
SK-MEL-28 = system: SK-MEL-28
SW-620 = system: SW-620
OVCAR-8 = system: OVCAR-8
SF-295 = system: SF-295
HOP-62 = system: HOP-62
LOX IMVI = system: LOX IMVI
HCC 2998 = system: HCC 2998

Structure (SMILES)	GI50 (U-251)	GI50 (HOP-92)	GI50 (NCI-H460)	GI50 (K562)	GI50 (HCT-116)	GI50 (SN12C)	GI50 (HL-60)	GI50 (RPMI-8226)	GI50 (SK-MEL-5)	GI50 (OVCAR-5)	GI50 (HCT-15) [µM]	GI50 (NCI-H522)	GI50 (HT-29)	GI50 (SK-MEL-28)	GI50 (SW-620)	GI50 (OVCAR-8)	GI50 (SF-295)	GI50 (HOP-62)	GI50 (LOX IMVI)	GI50 (HCC 2998)
Cc1c(Cl)nc(Nc2nc3ccccc3[nH]2)nc1Cl	> 100 µM (inactive)	2.06 µM (inactive)	> 100 µM (inactive)	> 100 µM (inactive)	> 100 µM (inactive)	41 µM (inactive)	> 100 µM (inactive)	> 100 µM (inactive)	> 100 µM (inactive)	> 100 µM (inactive)	> 100	89.5 µM (inactive)	25 µM (inactive)	40 µM (inactive)	31.2 µM (inactive)	41.7 µM (inactive)	> 100 µM (inactive)			
c1ccc2c(c1)N=C(NC1CCCCC1)CCN2	> 100 µM (inactive)		> 100 µM (inactive)	81.3 µM (inactive)	> 100 µM (inactive)	> 100 µM (inactive)	> 100 µM (inactive)	> 100 µM (inactive)	> 100 µM (inactive)	> 100 µM (inactive)	> 100	> 100 µM (inactive)	77.6 µM (inactive)	> 100 µM (inactive)	> 100 µM (inactive)	> 100 µM (inactive)	> 100 µM (inactive)	> 100 µM (inactive)		
O=C(O)C1=C(CO)Oc2cc3c(cc2C1c1ccc2c(c1)OCO2)OCO3 (stereo not drawn)	> 100 µM (inactive)	> 100 µM (inactive)	> 100 µM (inactive)	> 100 µM (inactive)	> 100 µM (inactive)	> 100 µM (inactive)	> 100 µM (inactive)	> 100 µM (inactive)	> 100 µM (inactive)		> 100		> 100 µM (inactive)	> 100 µM (inactive)	> 100 µM (inactive)	> 100 µM (inactive)	> 100 µM (inactive)	> 100 µM (inactive)	> 100 µM (inactive)	
Cc1cccc(C(O)c2ccccn2)c1O (stereo not drawn)	> 100 µM (inactive)		> 100 µM (inactive)	> 100 µM (inactive)	> 100 µM (inactive)	> 100 µM (inactive)	> 100 µM (inactive)	> 100 µM (inactive)	> 100 µM (inactive)	> 100 µM (inactive)	83.2	> 100 µM (inactive)	> 100 µM (inactive)	> 100 µM (inactive)	> 100 µM (inactive)	> 100 µM (inactive)	> 100 µM (inactive)	> 100 µM (inactive)	> 100 µM (inactive)	> 100 µM (inactive)
O=S(=O)(c1ccccc1)C1CC(c2nc3ccccc3[nH]2)=NO1 (stereo not drawn)	> 100 µM (inactive)	80.4 µM (inactive)	50.1 µM (inactive)	31.6 µM (inactive)	52.6 µM (inactive)	> 100 µM (inactive)		28.1 µM (inactive)	70.3 µM (inactive)	> 100 µM (inactive)	51.3	28.6 µM (inactive)	> 100 µM (inactive)	> 100 µM (inactive)	43.8 µM (inactive)	> 100 µM (inactive)	> 100 µM (inactive)	> 100 µM (inactive)	> 100 µM (inactive)	> 100 µM (inactive)
OC1CCSc2ccccc21 (stereo not drawn)	> 100 µM (inactive)		> 100 µM (inactive)	> 100 µM (inactive)	> 100 µM (inactive)	> 100 µM (inactive)		> 100 µM (inactive)	> 100 µM (inactive)	> 100 µM (inactive)	> 100	> 100 µM (inactive)	> 100 µM (inactive)	> 100 µM (inactive)	> 100 µM (inactive)	> 100 µM (inactive)		> 100 µM (inactive)	> 100 µM (inactive)	> 100 µM (inactive)
NNC(N)Nc1ccccc1 (stereo not drawn)	> 100 µM (inactive)	> 100 µM (inactive)	> 100 µM (inactive)	> 100 µM (inactive)		> 100 µM (inactive)	> 100 µM (inactive)		> 100 µM (inactive)	> 100 µM (inactive)	> 100	> 100 µM (inactive)	> 100 µM (inactive)	> 100 µM (inactive)	> 100 µM (inactive)	> 100 µM (inactive)	> 100 µM (inactive)	> 100 µM (inactive)		> 100 µM (inactive)
Cc1cc(O)c(C(C)C)cc1SC#N	16.9 µM (inactive)	10.7 µM (inactive)	16.4 µM (inactive)	6.3 µM (inactive)			35.1 µM (inactive)	2.16 µM (inactive)	19.6 µM (inactive)		17.3	5.46 µM (inactive)		17.4 µM (inactive)	17.3 µM (inactive)	17.7 µM (inactive)	17.3 µM (inactive)	21 µM (inactive)	11.9 µM (inactive)	17.2 µM (inactive)
OC(c1cccnc1Cl)c1nc2ccccc2c2ccnc(Cl)c12 (stereo not drawn)	4.18 µM (inactive)	18.7 µM (inactive)	4.4 µM (inactive)	1.4 µM (inactive)	3.35 µM (inactive)	3.6 µM (inactive)	2.77 µM (inactive)	2.34 µM (inactive)	3.46 µM (inactive)	9.51 µM (inactive)	3.04	1.05 µM (active)	4.6 µM (inactive)	23.7 µM (inactive)	3.06 µM (inactive)	9.12 µM (inactive)	2.52 µM (inactive)	2.15 µM (inactive)	7.01 µM (inactive)	
CCOC(=O)[C@H]1Nc2ccc(Cl)cc2[C@H]2c3ccccc3O[C@H]21	> 100 µM (inactive)		> 100 µM (inactive)	56.5 µM (inactive)	> 100 µM (inactive)	> 100 µM (inactive)		45.5 µM (inactive)	64.7 µM (inactive)	> 100 µM (inactive)	16.4	> 100 µM (inactive)	99.3 µM (inactive)	35.2 µM (inactive)	> 100 µM (inactive)	> 100 µM (inactive)	72.1 µM (inactive)	> 100 µM (inactive)	> 100 µM (inactive)	> 100 µM (inactive)
CCOC(=O)c1c(NC(=O)Nc2ccccc2)c(C(N)=O)c2n1CCCCC2	> 100 µM (inactive)	> 100 µM (inactive)	> 100 µM (inactive)	> 100 µM (inactive)	> 100 µM (inactive)		> 100 µM (inactive)	> 100 µM (inactive)	> 100 µM (inactive)		> 100		> 100 µM (inactive)	> 100 µM (inactive)	> 100 µM (inactive)	> 100 µM (inactive)	> 100 µM (inactive)	> 100 µM (inactive)	> 100 µM (inactive)	> 100 µM (inactive)
CC(=O)OC[C@H]1[C@@H]2C(CC[C@]13CO3)OC(=O)CC(C)[C@]2(C)CCc1ccoc1 (stereo partly drawn)	> 100 µM (inactive)	> 100 µM (inactive)	> 100 µM (inactive)	> 100 µM (inactive)	> 100 µM (inactive)	> 100 µM (inactive)	> 100 µM (inactive)		> 100 µM (inactive)	> 100 µM (inactive)	> 100	> 100 µM (inactive)	> 100 µM (inactive)	> 100 µM (inactive)	> 100 µM (inactive)	> 100 µM (inactive)	> 100 µM (inactive)	> 100 µM (inactive)	> 100 µM (inactive)	> 100 µM (inactive)
CCN1c2ccccc2NC(=S)c2c(-c3ccccc3)n[nH]c21	20.9 µM (inactive)	43.8 µM (inactive)	28.6 µM (inactive)	17.6 µM (inactive)	33.2 µM (inactive)	43.5 µM (inactive)	13.6 µM (inactive)	16.1 µM (inactive)	20.3 µM (inactive)	56.4 µM (inactive)	23	21 µM (inactive)	42.7 µM (inactive)	45.6 µM (inactive)	27 µM (inactive)	39.4 µM (inactive)	27.4 µM (inactive)		30.5 µM (inactive)	3.99 µM (inactive)
COc1cc(C2S/C(=C/c3ccccc3)C(=O)N2c2cccc(NC(C)=O)c2)cc(OC)c1OC (stereo not drawn)	17.6 µM (inactive)	16.4 µM (inactive)		39.5 µM (inactive)	17.2 µM (inactive)	45.2 µM (inactive)			35.2 µM (inactive)	65.8 µM (inactive)	30.5	13.5 µM (inactive)	21.1 µM (inactive)	90.2 µM (inactive)		29.9 µM (inactive)	40.5 µM (inactive)	67 µM (inactive)	21.5 µM (inactive)	29.6 µM (inactive)
O=Cc1c(Cn2ccnc2)c2cc([N+](=O)[O-])ccc2n1Cc1ccccc1	37.3 µM (inactive)	> 100 µM (inactive)	37.3 µM (inactive)	97.1 µM (inactive)	52 µM (inactive)	> 86.5 µM (inactive)		> 100 µM (inactive)	99.1 µM (inactive)	> 90.6 µM (inactive)	> 100	> 100 µM (inactive)	> 100 µM (inactive)	> 100 µM (inactive)	> 100 µM (inactive)	> 81.3 µM (inactive)	36.8 µM (inactive)	27.3 µM (inactive)	> 100 µM (inactive)	> 100 µM (inactive)
Cc1ccc(C2=C(C#N)C(N)OC3=C2COc2ccccc23)cc1 (stereo not drawn)	19.5 µM (inactive)	31.8 µM (inactive)	43.5 µM (inactive)	80.7 µM (inactive)	31.9 µM (inactive)	18.6 µM (inactive)	> 100 µM (inactive)	> 100 µM (inactive)	63 µM (inactive)	2.4 µM (inactive)	> 100		4.85 µM (inactive)	31.6 µM (inactive)	> 100 µM (inactive)			15.6 µM (inactive)	88.3 µM (inactive)	41.6 µM (inactive)

— ChEMBL document CHEMBL1201862, “PubChem BioAssay data set” (2004)
